Marks after values point to notes of the source that are not given here.
Experiments:
Assay type in all cases: in vivo
[1] = tested on: male obese ZSF1 rats (diabetic nephropathy model); experiment: ZSF1 rat 28-week in-feed study: urinary protein (UPCR, 24 h excretion); conditions: obese ZSF1 rats, 10 mpk in-feed
Procedure: (§1) The effects of Compound A (“A”) on renal function, plasma triglycerides, plasma cholesterol, kidney collagen I, kidney collagen III, renal histology, glomerular filtration rate, fibrosis score, and mRNA gene expression (profibrotic genes and integrin β3) were evaluated in male obese ZSF1 rats (a hybrid F1 of Zucker diabetic fatty rat and spontaneously hypertensive heart failure rat; a diabetic nephropathy model) when administered as in-feed for 28 weeks. Sixty obese male ZSF1 rats were randomized to five groups: Obese control (n=12), Compound A 60 mpk (n=12), Compound A 200 mpk (n=12), Compound A 400 mpk (n=12), Enalapril 10 mpk (n=12); Eight lean male ZSF1 rats were used for normal control. Renal functional changes were monitored by blood and urine analysis following in-feed dosing for 28 weeks. Compound exposure was also monitored during the study.

[2] = tested on: male obese ZSF1 rats (diabetic nephropathy model); experiment: ZSF1 rat study: GFR measurement by FITC-sinistrin clearance; conditions: obese ZSF1 rats, 10 mpk in-feed, week 28
Procedure: as §1
For the measurement of GFR, a miniaturized device (NIC-Kidney, Mannheim Pharma & Diagnostics, Mannheim, Germany) was used. In brief, the device (batteries, diodes, and microprocessor) containing an optical component was affixed on a depilated region of the back using a double-sided sticky patch (Lohmann GmbH KG, 56567, Neuwied, Germany) under isofluorane anesthesia (3% isoflurane mixed with oxygen). After a resting baseline period of 1-1.5 minutes, a bolus of FITC-sinistrin (5 mg/100 g body weight, dissolved in 0.5 mL sterile isotonic saline) was injected through the tail vein. The rat was then placed in a clean cage for recovery from anesthesia to responsible ambulation. […] The excretion kinetics of FITC-sinistrin was determined using a sampling rate of 60 measurements per minute with an excitation time of 10 milliseconds per measurement for 120 minutes after the injection. One compartment model was used for FITC-sinistrin clearance. After completion of GFR measurement, the device was gently removed from the skin and the rat returned to its home cage.

[3] = tested on: male obese ZSF1 rats (diabetic nephropathy model); experiment: ZSF1 rat study: renal fibrosis score (histology); conditions: obese ZSF1 rats, 10 mpk in-feed, week 28
Procedure: as §1
Upon completion of the study, animals were euthanized and blood and organs (kidney, heart, aorta, eyes, and lumber vertebrae (LV1-LV5) and left femur) were collected for histology assessment (including EM for the kidneys) or DEXA scan (lumber vertebrae and left femur). Kidney tissues were fixed in 10% formalin and then paraffin embedded. Tissue sections were stained with hematoxylin and eosin (H&E), periodic acid-Schiff (PAS), and Masson's trichrome and evaluated under light microscope. The severity of histopathologic changes in renal tubules, interstitium, vasculature, and glomeruli were graded on a 1 to 5 scale corresponding to minimal, mild, moderate, marked, and severe as described previously. Sections from both kidneys were examined. Collagen deposition in the kidney was graded on a 1 to 5 scale corresponding to minimal, mild, moderate, marked, and severe, based on the blue stained area size and intensity.

[4] = tested on: male obese ZSF1 rats (diabetic nephropathy model); experiment: ZSF1 rat study: kidney mRNA expression of profibrotic genes and integrin beta3; conditions: obese ZSF1 rats, 10 mpk in-feed, week 28
Procedure: as §1

[5] = tested on: male obese ZSF1 rats (diabetic nephropathy model); experiment: ZSF1 rat study: plasma triglyceride and cholesterol; conditions: obese ZSF1 rats, 10 mpk in-feed; for plasma cholesterol levels: in mg/dL (unit assumed)
Procedure: as §1

[6] = ZSF1 rat 28-week in-feed study: body weight, food and water intake; conditions: obese ZSF1 rats, 10 mpk in-feed
Procedure: as §1

[7] = tested on: male obese ZSF1 rats (diabetic nephropathy model); experiment: ZSF1 rat study: kidney collagen I and III immunostaining; conditions: obese ZSF1 rats, 10 mpk in-feed, week 28
Procedure: as §1
Following deparaffinization and rehydration, each kidney tissue section was processed to identify collagen I and III deposition. The primary antibodies used were rabbit anti-type I collagen polyclonal antibody (Abcam, Cambridge, Mass.) diluted at 2 ug/ml, and rabbit anti-type III collagen polyclonal antibody (Lifespan, Seattle, Wash.) at 3 ug/ml. The signal was developed by using Super PicTure HRP Polymer Rabbit Primary kit (Invitrogen) and the slides were counterstained with hematoxylin. The Aperio ScanScope XT Slide Scanner (Aperio Technologies, Vista, Calif.) system was used to capture whole slide digital images with a 20× objective. Digital images were managed using Aperio Spectrum. The positive stains were identified and quantified using a macro created from a color deconvolution algorithm (Aperio Technologies, Vista, Calif.).

CCOC(=O)[C@H](CCc1ccccc1)N[C@@H](C)C(=O)N1CCC[C@H]1C(=O)O [Enalapril, reference compound]
24 h Urinary Protein Excretion ([1]; week 1): 73.9 ± 3.8 mg/24 h | UPCR (urinary protein/creatinine ratio) ([1]; week 1): 6.3 ± 0.3 mg/mg | 24 h Urinary Protein Excretion ([1]; week 2): 91.2 ± 4.9 mg/24 h | UPCR (urinary protein/creatinine ratio) ([1]; week 2): 7.4 ± 0.4 mg/mg | 24 h Urinary Protein Excretion ([1]; week 4): 96.1 ± 5.1 mg/24 h | UPCR (urinary protein/creatinine ratio) ([1]; week 4): 8.0 ± 0.4 mg/mg | 24 h Urinary Protein Excretion ([1]; week 6): 92.2 ± 6.0 mg/24 h | UPCR (urinary protein/creatinine ratio) ([1]; week 6): 7.3 ± 0.4 mg/mg | 24 h Urinary Protein Excretion ([1]; week 8): 135.3 ± 10.2 mg/24 h | UPCR (urinary protein/creatinine ratio) ([1]; week 8): 10.2 ± 0.6 mg/mg | 24 h Urinary Protein Excretion ([1]; week 12): 234.8 ± 16.4 mg/24 h | UPCR (urinary protein/creatinine ratio) ([1]; week 12): 17.1 ± 0.9 mg/mg | 24 h Urinary Protein Excretion ([1]; week 16): 252.2 ± 21.1 mg/24 h | UPCR (urinary protein/creatinine ratio) ([1]; week 16): 14.0 ± 0.7 mg/mg | 24 h Urinary Protein Excretion ([1]; week 21): 274.5 ± 16.8 mg/24 h | UPCR (urinary protein/creatinine ratio) ([1]; week 21): 15.6 ± 0.6 mg/mg | 24 h Urinary Protein Excretion ([1]; week 24): 289.4 ± 16.5 mg/24 h | UPCR (urinary protein/creatinine ratio) ([1]; week 24): 16.6 ± 0.8 mg/mg | 24 h Urinary Protein Excretion ([1]; week 28): 309.6 ± 15.8 mg/24 h | UPCR (urinary protein/creatinine ratio) ([1]; week 28): 19.5 ± 0.8 mg/mg | 24 h Urinary Protein Excretion ([1]; week −2): 132.9 ± 9.9 mg/24 h | UPCR (urinary protein/creatinine ratio) ([1]; week −2): 10.8 ± 0.8 mg/mg | FITC-sinistrin clearance, % change of improvement compared to Obese Vehicle group [2]: 59.6%**** | Glomerular Filtration Rate [2]: 971.9 ± 53.3 uLs/Min/100 gm BW | renal fibrosis score (expressed as 0-5) [3]: 2.0 ± 0.1 | Collagen I (a1) expression in the kidney [4]: 0.54 ± 0.02 | Collagen III (a1) expression in the kidney [4]: 0.39 ± 0.02 | Integrin beta3 expression in the kidney [4]: 0.68 ± 0.03 | PAI-1 expression in the kidney [4]: 0.52 ± 0.04 | Plasma Triglyceride ([5]; week 2): 2979.8 ± 161.7 mg/dL | plasma cholesterol levels ([5]; week 2): 220.9 ± 5.9 | Plasma Triglyceride ([5]; week 4): 3212.4 ± 137.6 mg/dL | plasma cholesterol levels ([5]; week 4): 251.1 ± 7.4 | Plasma Triglyceride ([5]; week 6): 2866.6 ± 145.5 mg/dL | plasma cholesterol levels ([5]; week 6): 232.5 ± 6.0 | Plasma Triglyceride ([5]; week 8): 3770.3 ± 280.6 mg/dL | plasma cholesterol levels ([5]; week 8): 294.3 ± 6.7 | Plasma Triglyceride ([5]; week 12): 3298.3 ± 221.4 mg/dL | plasma cholesterol levels ([5]; week 12): 290.2 ± 7.6 | Plasma Triglyceride ([5]; week 16): 3554.6 ± 186.3 mg/dL | plasma cholesterol levels ([5]; week 16): 319.3 ± 9.9 | Plasma Triglyceride ([5]; week 21): 3224.3 ± 240.5 mg/dL | plasma cholesterol levels ([5]; week 21): 321.1 ± 11.3 | Plasma Triglyceride ([5]; week 24): 3180.2 ± 204.5 mg/dL | plasma cholesterol levels ([5]; week 24): 354.3 ± 12.5 | Plasma Triglyceride ([5]; week 28): 2855.1 ± 291.3 mg/dL | plasma cholesterol levels ([5]; week 28): 368.8 ± 13.2 | Plasma Triglyceride ([5]; week −2): 2023.9 ± 82.1 mg/dL | plasma cholesterol levels ([5]; week −2): 187.1 ± 5.4 | Body Weight ([6]; week 1): 570.2 ± 10.3 grams | Food Intake ([6]; week 1): 30.1 ± 1.3 grams/24 h | Water Intake ([6]; week 1): 50.2 ± 6.2 mls/24 h | Body Weight ([6]; week 2): 578.3 ± 11.2 grams | Food Intake ([6]; week 2): 31.7 ± 1.4 grams/24 h | Water Intake ([6]; week 2): 55.0 ± 5.2 mls/24 h | Body Weight ([6]; week 4): 585.7 ± 11.1 grams | Food Intake ([6]; week 4): 33.1 ± 1.0 grams/24 h | Water Intake ([6]; week 4): 56.6 ± 6.0 mls/24 h | Body Weight ([6]; week 6): 606.1 ± 11.6 grams | Food Intake ([6]; week 6): 33.1 ± 1.0 grams/24 h | Water Intake ([6]; week 6): 61.7 ± 5.5 mls/24 h | Body Weight ([6]; week 8): 623.8 ± 13.3 grams | Food Intake ([6]; week 8): 35.1 ± 1.5 grams/24 h | Water Intake ([6]; week 8): 85.4 ± 7.4 mls/24 h | Body Weight ([6]; week 10): 637.2 ± 14.1 grams | Body Weight ([6]; week 12): 655.6 ± 14.2 grams | Food Intake ([6]; week 12): 36.6 ± 1.5 grams/24 h | Water Intake ([6]; week 12): 91.7 ± 7.5 mls/24 h | Body Weight ([6]; week 14): 658.1 ± 16.2 grams | Body Weight ([6]; week 16): 671.1 ± 16.8 grams | Food Intake ([6]; week 16): 33.3 ± 1.6 grams/24 h | Water Intake ([6]; week 16): 83.3 ± 8.3 mls/24 h | Body Weight ([6]; week 18): 682.1 ± 16.4 grams | Body Weight ([6]; week 21): 709.5 ± 18.0 grams | Food Intake ([6]; week 21): 37.7 ± 1.6 grams/24 h | Water Intake ([6]; week 21): 75.8 ± 5.9 mls/24 h | Body Weight ([6]; week 24): 733.7 ± 20.2 grams | Food Intake ([6]; week 24): 35.5 ± 1.3 grams/24 h | Water Intake ([6]; week 24): 89.7 ± 7.9 mls/24 h | Body Weight ([6]; week 28): 753.7 ± 21.8 grams | Food Intake ([6]; week 28): 33.6 ± 1.5 grams/24 h | Water Intake ([6]; week 28): 68.0 ± 6.5 mls/24 h | Body Weight ([6]; week −2): 522.2 ± 10.2 grams | Food Intake ([6]; week −2): 37.5 ± 1.5 grams/24 h | Water Intake ([6]; week −2): 68.1 ± 4.9 mls/24 h | kidney collagen I protein levels [7]: 34.83 ± 0.71 % of area | kidney collagen III protein levels [7]: 19.19 ± 0.90 % of area
